Columns and labels:
[1] = system: Isolated male Wistar rat epididymal adipocytes; assay: Glucose uptake into adipocytes (in vitro insulin-mimetic activity); type: cell-based; conditions: 20 μM Zn complex, means ± SDs, three runs
Procedure: The in vitro insulin-mimetic activities of Zn complexes were determined by the inhibition of FFA release from adipocytes and increase of glucose uptake into adipocytes. Isolated male Wistar rat epididymal adipocytes (1.0 × 10^6 cells/mL) were prepared and pre-incubated separately with various concentrations of the different Zn complexes in 5 mM glucose in Krebs-Ringer bicarbonate buffer (120 mM NaCl, 1.3 mM CaCl2, 1.2 mM MgSO4, 4.8 mM KCl, 1.2 mM KH2PO4, 24 mM NaHCO3, pH 7.4) containing 2% BSA, with shaking at 100 cycles/min for 30 min at 37 °C. Adrenaline (15 μL, 0.2 mM) was then added to the mixtures, and the resultant solutions were then incubated for 3 h at 37 °C. The reaction mixture was subsequently centrifuged at 650× g for 10 min at 4 °C. FFA levels in the extracellular solutions were determined using an FFA measuring kit (NEFA C-test Wako) and the IC50 value, which is the 50% inhibitory concentration of FFA-release in each complex, was calculated. Glucose concentrations in the solutions with 20 μM Zn complexes were determined using a Fuji Dry Chem system (Fuji Medical Co., Tokyo, Japan) and then the glucose uptake quantities/(1.0 × 10^6 cells) in the 20 μM Zn complexes were calculated.

[2] = system: type 2 diabetic ob/ob mice; assay: Daily oral treatment of ob/ob mice for 28 days: blood glucose, body weight, water intake; type: in vivo
Procedure: The anti-diabetic effects of both [Zn(hmpt)2] and [Zn(hmps)2] were examined in ob/ob mice. The ob/ob and +/+ mice were used as type 2 diabetic and normal (non-diabetic) mice, respectively. The ob/ob (10-week-old) and +/+ (10-week-old) mice received daily oral treatment of either Zn complexes dissolved in PEG-400 or PEG-400 only, respectively. The mice received oral treatments of [Zn(hmpt)2] or [Zn(hmps)2] at doses of 2.5–10 mg Zn/kg or 1.0–5.0 mg Zn/kg for 28 days, respectively. Blood glucose levels (BGL) were measured using a Glucocard (Arkray, Kyoto, Japan) just before treatment with the Zn complexes, and the doses were regulated based on the BGL. Over 28 days, BGL, body weight, food intake, and water intake were measured every day. The number of normal mice (+/+ mice), control mice (ob/ob mice), [Zn(hmpt)2]-treated, and [Zn(hmps)2]-treated mice was 6, 8, 8, and 8 in the initial animal experiments, respectively. This was modified to 6, 6, 7, and 8 after the end of experiments as two control mice died naturally by the end of experiments, and one [Zn(hmpt)2]-treated mouse died from an accident during the oral glucose tolerance test.

[3] = system: type 2 diabetic ob/ob mice; assay: Oral glucose tolerance test (OGTT) after 28 days treatment; type: in vivo
Procedure: After treatment with [Zn(hmpt)2] or [Zn(hmps)2] for 28 days, OGTTs were performed. The ob/ob mice and +/+ mice were fasted for 12-h and glucose (1 g/kg body weight) was given orally. Blood samples were obtained from the tail vein at 0, 15, 30, 45, 60, 90, and 120 min after glucose administration. Blood glucose concentrations were measured using a Glucocard.

[4] = system: type 2 diabetic ob/ob mice; type: in vivo
Procedure: (§1) After OGTT, HbA1c levels were measured in blood obtained from the mouse tail vein using an immunoassay with a DCA 2000 analyzer (Bayer-Sankyo Co., Ltd., Tokyo, Japan). The mice were subjected to a 12-h fast and blood samples were collected from the orbital vein or postcaval vein under isoflurane anesthesia using heparinized tools. Collected samples were then centrifuged at 650× g for 10 min at 4 °C, and the resultant plasma samples were used to analyze various biochemical parameters. The levels of AST, ALT, BUN, TG, T-CHO, and ALP in plasma samples were determined using a Fuji Dry Chem system. The plasma levels of insulin and adiponectin were determined using an ultra-sensitive Mouse Insulin ELISA Kit (Morinaga Institute of Biological Science, Inc., Kanagawa, Japan) and an adiponectin immunoassay kit (R&D Systems Inc., Minneapolis, MN, USA), respectively. After collecting the blood samples, mice were subjected to dissection under isoflurane anesthesia, and the resultant tissue samples were washed in saline. Each of the samples was dehydrated for a week in desiccators, weighed, and then heated in 5% HNO3 (5 mL) for 5 h at 110 °C in a closed system. The resultant solution was centrifuged at 1250× g for 15 min, and the supernatant was diluted using 5% HNO3. Both Zn and Se concentrations in organs were determined with an ICP-MS Agilent 7700x/Mass Hunter instrument (Agilent Technologies Inc., Santa Clara, CA, USA). The Zn and Se concentrations in each sample were calculated using linear regression of the standard curves prepared from standard solutions of the respective trace elements.

[5] = Organ distribution of Zn and Se by ICP-MS after 28 days oral treatment; type: in vivo, mice
Procedure: as §1

[6] = system: type 2 diabetic ob/ob mice; assay: Histopathology and morphometric analysis of pancreas and liver (HE staining); type: in vivo; conditions: 14-week-old mice
Procedure: Excised pancreas and liver from 14-week-old mice were immediately fixed in 10% buffered formalin for a week, sectioned at a thickness of 3 μm, and stained with HE for histopathological examination. HE-stained tissue sections were scanned using a Moticam T2 (Shimadzu Co., Kyoto, Japan) to prepare digital images. Both pancreatic islet area and glycogen and fat deposition areas were calculated with the dedicated image processing software WinROOF (Mitani Corp., Tokyo, Japan).

[7] = system: type 2 diabetic ob/ob mice; assay: Triglyceride and glycogen contents in the liver; type: in vivo; conditions: ob/ob mice after 28 days oral treatment
Procedure: Lipids in the liver were extracted according to modified Folch method. TG in the extracted lipids was detected using the triglyceride E test wako (Wako Pure Chemicals Co., Osaka, Japan). Glycogen in the liver was extracted with a strong base (30% KOH aq). Then, ethanol precipitation methods (using 95% ethanol and saturated Na2SO4), hydrolysis, and neutralization (with 2.4 M HCl aq and 0.8 M NaOH aq) of the glycogen extracts were performed, resulting in degradation to glucose solution. To detect the glucose levels in the solution using the glucose CII test wako (Wako Pure Chemicals Co., Osaka, Japan), glycogen levels in the liver were estimated. Because the liver sample of normal mice was used up during TG detection and ICP-MS analysis, glycogen content in the liver could not be detected.

[8] = system: male ICR mice; parameters: method as in doi:10.1248/jhs1956.39.4_289; conditions: six days per week, 30 days, cited from earlier work

Which “Glucose Uptake” value [1] does the source give for Cc1occc(=S)c1[O-].Cc1occc(=S)c1[O-].[Zn+2] [[Zn(hmpt)2], bis(3-hydroxy-2-methyl-4(H)-pyran-4-thiono)Zn] here?
The value was 79 ± 26 µg/10^6 Cells.

What about the “Blood glucose level by the end of treatment” value ([2]; [Zn(hmpt)2] 2.5–10 mg Zn/kg, [Zn(hmps)2] 1.0–5.0 mg Zn/kg) of the same molecule?
The value was “approximately 200 mg/dL”.

What about the “Water intake on the final day” value ([2]; control 12.6 ± 1.6 g, p < 0.01 vs. control) of the same molecule?
Its value is 7.5 ± 2.5 g.

What about the “Body weight change during treatment” value ([2]; loss seen day 22 to 25, recovered after dose reduction) of the same molecule?
Its value is “body weight loss”.

What about the “Area under the blood glucose concentration-time curve (AUC) in OGTT” value ([3]; 1 g glucose/kg oral, after 28 days treatment, compared with control mice) of the same molecule?
Its value is “significantly decreased”.

What about the “Fasting blood glucose level (0 min of OGTT)” value ([3]; ob/ob mice after 28 days oral treatment, 12-h fast, control 237 ± 52 mg/dL) of the same molecule?
Its value is 143 ± 75 mg/dL.

What about the “ALP (plasma)” value ([4]; mouse, in vivo, po) of the same molecule?
Its value is 360 ± 88 U/L.

What about the “ALT (plasma)” value ([4]; mouse, in vivo, po) of the same molecule?
Its value is 118 ± 68 U/L.

What about the “AST (plasma)” value ([4]; mouse, in vivo, po) of the same molecule?
Its value is 103 ± 25 U/L.

And the “BUN (plasma)” value ([4]; mouse, in vivo, po)?
The value was 23 ± 2 **^,## mg/dL.

What about the “Insulin (fasting plasma)” value ([4]; ob/ob mice after 28 days oral treatment, control 2.2 ± 1.0) of the same molecule?
The value was 0.9 ± 0.3 ng/mL.

And the HbA1c ([4]; ob/ob mice after 28 days oral treatment, control 7.9 ± 0.8)?
Its HbA1c is 6.5 ± 0.7 **^,## %.

What about the “Adiponectin (plasma)” value ([4]; ob/ob mice after 28 days oral treatment, control 8.2 ± 1.1) of the same molecule?
The value was 9.4 ± 0.8 µg/mL.

What about the “TG (plasma)” value ([4]; ob/ob mice after 28 days oral treatment, control 83 ± 16) of the same molecule?
The value was 76 ± 25 mg/dL.

And the “T-CHO (plasma)” value ([4]; ob/ob mice after 28 days oral treatment, control 195 ± 16)?
Its value is 189 ± 42 mg/dL.

And the “Se concentration, kidney” value ([5]; dry tissue, ob/ob mice after 28 days oral treatment, control 6.4 ± 0.2)?
The value was 5.8 ± 0.5 µg/g.

And the “Zn concentration, kidney” value ([5]; dry tissue, ob/ob mice after 28 days oral treatment, control 67 ± 3)?
Its value is 73 ± 4 µg/g.

And the “Δ[Zn], bone” value ([5]; mouse, in vivo, po)?
Its value is 517 nmol/g.

And the “Δ[Zn], kidney” value ([5]; mouse, in vivo, po)?
Its value is 86 nmol/g.

And the “Δ[Zn], liver” value ([5]; mouse, in vivo, po)?
The value was 453 nmol/g.

What about the “Δ[Zn], pancreas” value ([5]; mouse, in vivo, po) of the same molecule?
The value was 302 nmol/g.

And the “Δ[Zn], plasma” value ([5]; mouse, in vivo, po)?
The value was 3 nmol/g.

What about the “Pancreatic islet numbers per section” value ([6]; among normal, control and treated mice) of the same molecule?
Its value is “not significantly changed”.

And the “Glycogen and fat deposition area ratio in the liver” value ([6]; between control and treated mice)?
Its value is “no significant differences”.

And the “Pancreatic islet area ratio and size” value ([6]; compared with normal mice)?
Its value is “significantly increased”.

What about the “Glycogen content in the liver” value ([7]; control 0.08 ± 0.04) of the same molecule?
Its value is 0.03 ± 0.01 mg/g liver.

What about the “TG content in the liver” value ([7]; control 437 ± 139) of the same molecule?
The value was 309 ± 134 mg/g liver.

Which Lethality ([8]; oral once daily 30 mg/kg/day (13.9 mg Se/kg/day)) does the source give for N[C@@H](C[SeH])C(=O)O (racemic) [D,L-selenocysteine] here?
The Lethality was 100%.

And the Hepatic histology finding ([8]; oral once daily 30 mg/kg/day)?
Its Hepatic histology finding is “vacuolation of centrilobular and peripheral hepatocytes”.
